In paper PMC7949057, “The cytoprotective protein MANF promotes neuronal survival independently from its role as a GRP78 cofactor” (The Journal of Biological Chemistry, 2021):
Residue numbers refer to the chain shown, from its start.

Legend:
Format in all cases: binding
[1] = target: T1, MANF (Homo sapiens, UniProt P55145); assay: microscale thermophoresis
T1 construct: mature secreted protein (about 18 kDa, signal peptide cleaved), made in CHO-derived cells (QMCF, Icosagen), no tag told; amine-labelled with RED-NHS for MST
T1 sequence (P55145 25-182): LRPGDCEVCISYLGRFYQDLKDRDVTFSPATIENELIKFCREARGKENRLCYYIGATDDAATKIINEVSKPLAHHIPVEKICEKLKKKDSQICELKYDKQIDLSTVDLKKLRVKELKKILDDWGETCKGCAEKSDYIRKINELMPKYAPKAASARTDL
From the text: microscale thermophoresis on MANF | MANF did interact with ADP, ATP, and AMP–PNP with Kd-s of […]

[2] = target: T2, MANF (Homo sapiens, UniProt P55145, V137G/K138A, form not given); assay: microscale thermophoresis; conditions: labelled MANF 50 nM; 10 mM Na-phosphate pH 7.4, 1 mM MgCl2, 3 mM KCl, 150 mM NaCl, 0.05% Tween-20; 25 °C; 1:1 fit
T2 construct: mature secreted protein (about 18 kDa, signal peptide cleaved), made in CHO-derived cells (QMCF, Icosagen), no tag told; amine-labelled with RED-NHS for MST
T2 sequence (P55145 25-182 V137G/K138A): T1 sequence (P55145 25-182) with V113G, K114A
From the text: microscale thermophoresis on MANF | the mutant was able to bind ATP similarly to the wild-type MANF

[3] = target: T3, C-MANF (Homo sapiens, UniProt P55145); assay: […]-HSQC NMR chemical shift perturbation; conditions: 100 μM C-MANF, ATP:protein 0.5 to 10; 20 mM sodium phosphate pH 6.5, 50 mM NaCl; 25 °C; site at V134, K135
T3 sequence (P55145 120-182 limits assumed): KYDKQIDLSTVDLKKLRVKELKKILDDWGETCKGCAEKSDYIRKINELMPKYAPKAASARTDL

[4] = target: T4, GRP78 (Cricetulus griseus, UniProt G3I8R9); assay: fluorescent nucleotide release (ex […] nm, em […] nm); conditions: labelled compound; GRP78 1.25 μM, MABA-ADP 1.25 μM, chase ATP 125 μM, no MANF; 50 mM HEPES-KOH pH 7.4, 100 mM KCl, 10 mM MgCl2
T4 construct: gene HSPA5; full-length recombinant, N-terminal His-tag, labelled with RED-tris-NTA for MST
T4 sequence (G3I8R9 19-654): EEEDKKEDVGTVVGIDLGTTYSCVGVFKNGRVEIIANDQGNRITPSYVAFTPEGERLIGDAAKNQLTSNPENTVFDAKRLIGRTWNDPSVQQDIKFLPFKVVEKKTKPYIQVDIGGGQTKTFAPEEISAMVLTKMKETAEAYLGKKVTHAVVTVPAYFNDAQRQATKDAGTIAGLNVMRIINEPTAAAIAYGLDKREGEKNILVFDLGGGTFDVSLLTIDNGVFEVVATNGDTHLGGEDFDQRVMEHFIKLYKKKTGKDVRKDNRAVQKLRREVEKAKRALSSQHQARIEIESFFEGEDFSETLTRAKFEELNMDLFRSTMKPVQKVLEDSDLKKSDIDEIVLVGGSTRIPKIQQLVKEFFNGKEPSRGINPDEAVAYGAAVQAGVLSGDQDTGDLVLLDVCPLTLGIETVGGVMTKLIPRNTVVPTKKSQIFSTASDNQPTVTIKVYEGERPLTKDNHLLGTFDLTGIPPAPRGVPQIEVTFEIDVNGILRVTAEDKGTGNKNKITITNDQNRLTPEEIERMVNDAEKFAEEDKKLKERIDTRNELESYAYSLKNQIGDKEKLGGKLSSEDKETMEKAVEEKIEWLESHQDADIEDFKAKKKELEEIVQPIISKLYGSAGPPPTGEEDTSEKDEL

Row | Kd [1] [µM] | Kd [2] [µM] | Compound | 15N-HSQC NMR chemical shift perturbation [3] | koff [4]
1 | 880 ± 280 | – | Nc1ncnc2c1ncn2[C@@H]1O[C@H](COP(=O)(O)OP(=O)(O)O)[C@@H](O)[C@H]1O [ADP] | – | –
2 | 560 ± 170 | – | Nc1ncnc2c1ncn2[C@@H]1O[C@H](COP(=O)(O)OP(=O)(O)NP(=O)(O)O)[C@@H](O)[C@H]1O [AMP–PNP] | – | –
3 | 830 ± 390 | 339 ± 160 | Nc1ncnc2c1ncn2[C@@H]1O[C@H](COP(=O)(O)OP(=O)(O)OP(=O)(O)O)[C@@H](O)[C@H]1O [ATP] | the ATP binding site is located at the C-terminal domain of MANF | –
4 | – | – | CNc1ccccc1C(=O)NCCCCNc1nc2c(N)ncnc2n1[C@@H]1O[C@H](COP(=O)(O)OP(=O)(O)O)[C@@H](O)[C@H]1O [MABA–ADP] | – | determine the mean koff rates of MABA–ADP release
